In the supplement of paper PMC10307832:

Assays:
Assay in all cases: relative viability (nuclei count vs DMSO), 5 days (fraction); higher = more cells survive
AZ505 + Bortezomib = compound: C1CCC(CC1)N(CCNCCC2=C3C(=C(C=C2)O)NC(=O)CO3)C(=O)CCNCCC4=CC(=C(C=C4)Cl)Cl [AZ505] + CC(C)C[C@H](NC(=O)[C@H](Cc1ccccc1)NC(=O)c1cnccn1)B(O)O [Bortezomib] (partner 0.002 µM)
Method in brief: (§1)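 Cells from lung cancer lines were seeded into 1536-well plates and, one day later, dosed by pin tool. Treatments were either a single drug or a fixed dose of an anchor drug with five library-drug doses (not always all listed) in √10 steps. After 5 days, nuclei were stained in a one-step fixation (final 0.05% Triton X-100, 1% formaldehyde, 1 ug/ml Hoechst) and counted on 4× images, and relative viability is the treated-to-vehicle nuclei ratio, as the median of duplicate plates.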

AZ505 + Pictilisib = compound: C1CCC(CC1)N(CCNCCC2=C3C(=C(C=C2)O)NC(=O)CO3)C(=O)CCNCCC4=CC(=C(C=C4)Cl)Cl [AZ505] + CS(=O)(=O)N1CCN(Cc2cc3nc(-c4cccc5[nH]ncc45)nc(N4CCOCC4)c3s2)CC1 [Pictilisib] (partner 1 µM)
Method in brief: as §1

AZ505 + Olaparib = compound: C1CCC(CC1)N(CCNCCC2=C3C(=C(C=C2)O)NC(=O)CO3)C(=O)CCNCCC4=CC(=C(C=C4)Cl)Cl [AZ505] + O=C(c1cc(Cc2n[nH]c(=O)c3ccccc23)ccc1F)N1CCN(C(=O)C2CC2)CC1 [Olaparib] (partner 8 µM)
Method in brief: as §1

Dactolisib + Dasatinib = compound: Cn1c(=O)n(-c2ccc(C(C)(C)C#N)cc2)c2c3cc(-c4cnc5ccccc5c4)ccc3ncc21 [Dactolisib] + Cc1nc(Nc2ncc(C(=O)Nc3c(C)cccc3Cl)s2)cc(N2CCN(CCO)CC2)n1 [Dasatinib] (partner 0.075 µM)
Method in brief: as §1

| Cell Line | relative viability (AZ505 + Bortezomib; first compound 0.08 µM) | relative viability (AZ505 + Bortezomib; first compound 0.253 µM) | relative viability (AZ505 + Bortezomib; first compound 0.8 µM) | relative viability (AZ505 + Bortezomib; first compound 2.53 µM) | relative viability (AZ505 + Bortezomib; first compound 8 µM) | relative viability (AZ505 + Pictilisib; first compound 0.08 µM) | relative viability (AZ505 + Pictilisib; first compound 0.253 µM) | relative viability (AZ505 + Pictilisib; first compound 0.8 µM) | relative viability (AZ505 + Pictilisib; first compound 2.53 µM) | relative viability (AZ505 + Pictilisib; first compound 8 µM) | relative viability (AZ505 + Olaparib; first compound 0.08 µM) | relative viability (AZ505 + Olaparib; first compound 0.8 µM) | relative viability (AZ505 + Olaparib; first compound 2.53 µM) | relative viability (AZ505 + Olaparib; first compound 8 µM) | relative viability (Dactolisib + Dasatinib; first compound 0.002 µM) | relative viability (Dactolisib + Dasatinib; first compound 0.006325 µM) | relative viability (Dactolisib + Dasatinib; first compound 0.02 µM) | relative viability (Dactolisib + Dasatinib; first compound 0.06325 µM) | relative viability (Dactolisib + Dasatinib; first compound 0.2 µM) | relative viability (AZ505 + Olaparib; first compound 0.253 µM) |
| --- | --- | --- | --- | --- | --- | --- | --- | --- | --- | --- | --- | --- | --- | --- | --- | --- | --- | --- | --- | --- |
| NCI-H596 | 0.963 | 0.847 | 0.756 | 1.19 | 1.03 | 0.362 | 0.382 | 0.355 | 0.394 | 0.445 | 0.743 | 0.704 | 0.722 | 0.598 | 0.629 | 0.539 | 0.528 | 0.384 | 0.319 | – |
| NCI-H2170 | – | – | – | – | – | 0.319 | 0.289 | 0.254 | 0.336 | 0.33 | 0.544 | 0.614 | 0.58 | 0.594 | 0.644 | 0.538 | 0.652 | 0.486 | 0.289 | 0.601 |
| NCI-H1703 | 0.351 | 0.383 | 0.366 | 0.358 | 0.458 | 0.242 | 0.235 | 0.231 | 0.256 | 0.25 | 0.319 | 0.438 | 0.411 | 0.656 | – | – | – | – | – | 0.502 |
| Calu-6 | 0.969 | 1.07 | 0.906 | 0.915 | 1.12 | 0.835 | 0.989 | 0.884 | 0.905 | 0.867 | 0.543 | 0.525 | 0.504 | 0.608 | – | – | – | – | – | 0.59 |
| SK-MES-1 | – | – | – | – | – | 0.377 | 0.394 | 0.388 | 0.38 | 0.411 | 0.682 | 0.662 | 0.603 | 0.719 | 0.433 | 0.375 | 0.307 | 0.222 | 0.147 | 0.694 |
| EBC-1 | 0.479 | 0.519 | 0.452 | 0.533 | 0.515 | 0.374 | 0.375 | 0.345 | 0.354 | 0.328 | 0.644 | 0.673 | 0.69 | 0.642 | – | – | – | – | – | 0.693 |
| NCI-H1623 | – | – | – | – | – | – | – | – | – | – | – | – | – | – | 0.518 | 0.585 | 0.528 | 0.412 | 0.379 | – |
| NCI-H1648 | – | – | – | – | – | – | – | – | – | – | – | 0.795 | 0.754 | 1.38 | – | – | – | – | – | 0.794 |
| NCI-H522 | – | – | – | – | – | – | – | – | – | – | 0.607 | 0.698 | 0.698 | 0.685 | 0.993 | 0.791 | 0.822 | 0.689 | 0.581 | 0.645 |
| NCI-H1563 | 0.846 | 0.743 | 0.83 | 0.766 | 0.922 | 0.612 | 0.62 | 0.695 | 0.595 | 0.609 | – | – | – | – | 0.498 | 0.466 | 0.47 | 0.474 | 0.458 | – |
| NCI-H1793 | – | – | – | – | – | 0.284 | 0.417 | 0.426 | 0.31 | 0.386 | 0.696 | 0.769 | 0.772 | 0.972 | 0.388 | 0.312 | 0.253 | 0.16 | 0.134 | 0.885 |
| NCI-H1299 | 1.01 | 1.05 | 0.926 | 0.998 | 1.01 | 0.576 | 0.672 | 0.703 | 0.546 | 0.722 | 0.897 | 0.932 | 0.885 | 0.876 | – | – | – | – | – | 0.925 |
| NCI-H358 | – | – | – | – | – | 0.3 | 0.332 | 0.355 | 0.313 | 0.371 | 0.569 | 0.584 | 0.604 | 0.59 | 0.162 | 0.157 | 0.191 | 0.0796 | 0.0694 | 0.761 |
| NCI-H1395 | – | – | – | – | – | 0.704 | 0.563 | 0.512 | 0.635 | 0.698 | 0.427 | 0.456 | 0.489 | 0.392 | 0.405 | 0.405 | 0.392 | 0.381 | 0.355 | – |
| NCI-H2342 | – | – | – | – | – | – | – | – | – | – | 0.428 | 0.491 | 0.485 | 0.488 | 0.298 | 0.294 | 0.348 | 0.31 | 0.284 | 0.463 |
| A549 | – | – | – | – | – | 0.461 | 0.569 | 0.519 | 0.585 | 0.59 | 0.315 | 0.358 | 0.415 | 0.296 | – | – | – | – | – | 0.362 |
| NCI-H1944 | – | – | – | – | – | 0.343 | 0.372 | 0.346 | 0.344 | 0.334 | 0.39 | 0.497 | 0.413 | 0.423 | 0.22 | 0.2 | 0.212 | 0.165 | 0.148 | 0.411 |
| SW 900 | – | – | – | – | – | – | – | – | – | – | 0.853 | 0.86 | 0.932 | 0.987 | 0.431 | 0.455 | 0.694 | 0.265 | 0.174 | 0.775 |
| IA-LM | 0.59 | 0.867 | 0.835 | 0.866 | 0.896 | – | 0.419 | 0.292 | 0.415 | 0.432 | 0.78 | 0.807 | 0.902 | 0.889 | – | – | – | – | – | 0.846 |
| LK-2 | – | – | – | – | – | 0.562 | 0.706 | 0.59 | 0.597 | 0.604 | 0.597 | 0.87 | 0.822 | 0.784 | 0.279 | 0.322 | 0.31 | 0.182 | 0.144 | 0.583 |
| HCC-44 | 0.865 | 0.883 | 0.879 | 0.915 | 0.86 | 0.635 | 0.716 | 0.479 | 0.669 | 0.601 | 0.928 | 1.02 | 1 | 1.05 | – | – | – | – | – | 1.01 |
